# Legend:
# Format in all cases: physicochemical
# [1] = Relaxivity (r1, r2) measurement at 1.91 T (81.33 MHz); settings: in H2O @ 25 C.
# From the text: Furthermore, the effect of a compound on the T1 is given as the relaxivity so a high relaxivity gives a stronger signal enhancement. The relaxivity (r) is frequency dependent in a structure dependent way which complicates the comparison of data from the literature from different sources. The clinical MRI scanners usually have a magnetic field of 1.5 or 3 Tesla so we have measured our relaxivities at 1.91 T, corresponding to a proton resonance frequency of 81.3 MHz, as a reasonable compromise. Measurements may also be done at other frequencies, such as 60 MHz. The relaxivity for the commercially available gadolinium based contrast agents are close to 4/mMGd/s at the clinically relevant fields.
# [2] = Complexometric stability test (equimolar EDTA) evaluated by relaxometry; settings: 1 mM Mn standard + equimolar EDTA, pH 7±0.5, 60 MHz, 37° C.
# Method: Measure the longitudinal relaxivity of a nanostructure solution (r1(ns)) having a concentration of 1 mM Mn. Prepare another nanostructure solution containing 1 mM Mn and add an equivalent molar amount of EDTA. The pH of this solution must be adjusted to pH 7±0.5, if necessary. Measure the longitudinal relaxivity of this nanostructure solution with added EDTA (r1(ns+EDTA)). As a reference material, 1 mM solution using a Manganese Standard for AAS (Fluka 77036) is prepared, added an equimolar amount of EDTA, and pH adjusted to pH 7±0.5. The longitudinal relaxivity is measured (r1(Mn+EDTA)) and resulted to a value of 1.6 mM^−1s^−1. To calculate the % Mn-released from the nanostructure after addition of equivalent EDTA:
# [formula] Note: Relaxation (T1, in seconds) is measured using the Minispec mq60 NMR analyzer (60 MHz) at 37° C. and relaxivity r1 is calculated using:
# [formula] where T1 H2O=[…]; c1=1 mM.
# [3] = Hydrodynamic diameter by dynamic light scattering (DLS), volume average; settings: aqueous solution
# Method: The term “DLS” as used herein is an acronym for dynamic light scattering, a particle sizing method, and may also be referred to as Photon Correlation Spectroscopy or Quasi-Elastic Light Scattering. The DLS sizes given as stated in the text and in the claims, if nothing else is specified, refers to the position of the maximum of the volume average peak for a sample measured at 25° C. in neutral aqueous solution with an ionic strength corresponding to 150 mM NaCl.
# The hydrodynamic diameter referred to, is the diameter of the equivalent hard sphere as calculated from the diffusion coefficient, according to the Stokes-Einstein equation. The diffusion coefficient is in turn calculated from the time dependent light scattering data obtained by the Dynamic Light Scattering (DLS) technique. As a comparison, bovine serum albumin is measured to have a hydrodynamic diameter of 6.5 nm by DLS in aqueous solution, very much in agreement with the crystal structure. Depending on whether the number average, volume average, or scattered intensity average is used, the values may be somewhat different. […] The average diameters referred to in this text refers to volume averages.
molecule,measurement,setting,value
[Cl][Mn][Cl] [MnCl2],r1,[1],5.8
Mn+EDTA,longitudinal relaxivity r1(Mn+EDTA),[2],1.6 mM⁻¹ s⁻¹
bovine serum albumin: size comparison for DLS,hydrodynamic diameter by DLS,[3],6.5 nm

# From patent US9040637B2, “Manganese comprising nanostructures” (SPAGO IMAGING AB, priority 2011, dated 2015)
